Data as given in patent publication US20240050449A1, “Use of Acetyltanshinone IIA in Preparation of Medicament for Treating Lung Cancer and Medicament for Treating Lung Cancer” (UNIVERSITY OF MACAU, priority 2022, published 2024).
Entries after “also recorded” stand apart in the source; their conditions may differ.

Columns and labels:
A549 cells [1] = test: MTT cell viability assay, A549 cells; format: cell-based
Method: Cells were seeded at a density of 3×10^3 per well in 96-well plates, allowed to attach overnight, and treated with various concentrations of agent. After 72 h of treatment, 10 μL of MTT solution (5 mg/mL) was added to each well and cultured in the plate for 4 h. The crystallized formazan was dissolved in 100 μL of 10% (w/v) SDS and 0.01 mol/L HCl solution for 24 h, and then the value was read by spectrophotometry at 595 nm using a microplate reader.

H1975 cells [2] = test: Colony formation (cloning experiment), H1975 cells; format: cell-based; conditions: 0.125 μM, 10 days
Method: (§1) Cells were seeded at a density of 1×10^3 per well in 6-well plates and cultured for 24 h. The cells were treated with medicament or DMSO for 10 days, after which the cells were washed once with 1×PBS, fixed with 4% paraformaldehyde for 20 min, and stained with 0.1% crystal violet for 15 min. The stained cells in each well were imaged and the number of colonies in each well was quantified using ImageJ software.

H1650 cells = test: Colony formation (cloning experiment), H1650 cells; format: cell-based; conditions: 10 days
Method: as §1

H1975 cells [3] = test: Spheroid formation experiment, H1975 cells; format: cell-based
Excerpt: The density of H1975 was 500 cells per well and the density of H1650 was 1000 cells per well in an ultra-low adhesion round bottom 96 well plate (Corning, #7007).

A549 cells [4] = test: Transwell cell migration assay; format: cell-based
Method: (§2) Cell migration and invasion assays were performed in a transwell chamber (Corning, #3422) with a pore size of 8 μm. Cells were treated with different concentrations of ATA and Erlotinib for 48 h, then harvested and resuspended in a serum-free medium. Cells (1×10^4) were added to the upper side of the transwell chamber and fresh medium containing 10% FBS was added to the lower side. Cells were allowed to migrate from the upper side to the lower side of the chamber at 37° C. for 24 h. Membranes from the cell chamber were fixed with 4% paraformaldehyde for 20 min. The cells remaining on the upper side of the membrane were gently removed with a cotton swab and stained with 1% crystal violet for 20 min to stain the cells migrating to the other side of the transwell chamber. The membrane was then cut and fixed on a glass slide. The migrated cells on each slide were imaged with a Leica M165-FC microscope. For the transwell invasion assay, a Matrigel solution (Corning, #356230) was diluted to one-thirtieth with serum-free medium and applied to the upper side of the precoated chamber for 2 h, after the Matrigel had solidified, the cells were added to the upper side of the transwell chamber. The following procedure is identical to the migration assay. Migrated and invaded cells were quantified using ImageJ software.

A549 cells [5] = test: Transwell Matrigel invasion assay; format: cell-based
Method: as §2

MET = test: Western blot, MET protein levels in drug-resistant NSCLC cells; format: cell-based; conditions: 2 μM
Method: Cells were washed once with PBS and frozen in RIPA lysis buffer containing protease and phosphatase inhibitors (Sigma-Aldrich) for 30 min. After sonication and centrifugation, the total protein concentration was determined by protein assay using Bio-Rad concentrated dye reagent (Bio-Rad). Equal amounts of protein ([…]) from each sample were separated by SDS-PAGE and electrotransferred to nitrocellulose membranes (GE Healthcare). Detection was performed on the membrane with a 1:1000 dilution of specific primary antibody followed by incubation with a 1:2000 dilution of the HRP conjugated secondary antibody. Finally, immunoreactivity is detected with a chemiluminescent substrate (Clarity Western ECL substrate; Bio-Rad). […] Aurora A (#ab13824) and PLK1 (#ab189139) antibodies were from Abcam.

[6] = test system: A549 cell-derived xenograft tumors; test: Mouse xenograft study; format: in vivo, nude mice; conditions: 25 mg/kg intraperitoneally every 3 days, day 31
Method: Cell line xenograft experiments were performed in 6-week-old female nude mice, 4×10^6 A549 cells were mixed 1:1 with matrigel-basement membrane matrix (Corning) and injected subcutaneously into nude mice. Tumors were allowed to grow to around […] and mice were randomly selected to receive treatment with ATA (25 mg/kg) or Erlotinib (25 mg/kg) intraperitoneally every 3 days for 31 days. ATA was formulated with 25% ethanol, 60% PEG300 (Sigma-Aldrich), and 15% Tween 80 (Sigma-Aldrich). Erlotinib was formulated in 5% DMSO, 30% PEG300, 5% Tween 80 and 60% H2O. Mouse body weight and tumor volume were measured every 3 days by a scale and caliper. Tumor volume (mm^3) was calculated using the formula. π/6×length (mm)×[width (mm)]^2. At least 6 mice in the control and treatment groups were evaluated during the study. All mice were sacrificed after 31 days of drug treatment, tumors were collected, and tumor weights were recorded. All animal studies were conducted in accordance with the requirements of the Animal Research Ethics Committee of Macao University and in compliance with all relevant ethical requirements.
To determine if ATA could also produce the same effect in vivo, this example injected A549 cells subcutaneously into nude mice to form tumor xenografts. Mice were randomly assigned to three groups. When the size of each tumor increased to a volume of approximately 100 mm^3, mice were injected intraperitoneally with vehicle control, ATA (25 mg/kg), or Erlotinib (25 mg/kg) every 3 days for 31 days. The tumor size and body weight of each mouse were measured every 3 days until the end of the animal experiment on day 31.

[7] = test system: protein levels in A549-derived xenograft tumor tissue; test: Western blot of A549-derived xenograft tumor tissue; format: in vivo, nude mice; conditions: after ATA treatment, 25 mg/kg
Method: Cells were washed once with PBS and frozen in RIPA lysis buffer containing protease and phosphatase inhibitors (Sigma-Aldrich) for 30 min. After sonication and centrifugation, the total protein concentration was determined by protein assay using Bio-Rad concentrated dye reagent (Bio-Rad). Equal amounts of protein (25-50 mg) from each sample were separated by SDS-PAGE and electrotransferred to nitrocellulose membranes (GE Healthcare). Detection was performed on the membrane with a 1:1000 dilution of specific primary antibody followed by incubation with a 1:2000 dilution of the HRP conjugated secondary antibody. Finally, immunoreactivity is detected with a chemiluminescent substrate (Clarity Western ECL substrate; Bio-Rad). EGFR (#4267S), MET (#8198S), p-Akt (#9271L), akt (#9272S), p-mTOR (#5536S), mTOR (#2983S), p-p70S6K (#9234S), p70S6K (#2708S), p-S6RP (#4857S), S6RP (#2217S), p-4E-BP1 (#9455S) antibodies. 4E-BP1 (#9644S), p53 (#2527S), p21 waf1/Cip1 (#2947S), survivin (#2808S), cyclin B1 (#12231S), cyclin D3 (#2936S) and GAPDH (#2118S) were purchased from Cell Signaling Technology. Aurora A (#ab13824) and PLK1 (#ab189139) antibodies were from Abcam.
EGFR, MET, p-p70S6K, p70S6K, p-S6RP, S6RP, p21, AURKA, PLK1, and survivin protein levels were detected by Western blot analysis. Immunoblot samples were from two independent tumors per group.

## CC(=O)Oc1c(OC(C)=O)c2c(C)coc2c2ccc3c(c12)CCCC3(C)C [ATA, acetyltanshinone IIA]
A549 cells [1]
  IC50 ratio of Erlotinib/ATA: 10.7
A549 cells [1]; ATA 2 μM, 72 h, MTT
  growth inhibition compared with other agents: significantly higher than all three inhibitors; also recorded: greater growth inhibition than combination therapy with Erlotinib and MLN8237
A549 cells [1]; MTT, 72 h
  IC50: 1830 ± 210 nM
H1975 cells [2]
  inhibition of colony formation: almost completely inhibited
H1650 cells; 0.125 μM
  reduction of colony-forming capacity: 73%
H1650 cells; 1 μM
  colony formation inhibition compared with Afatinib: significantly higher colony formation inhibition than Afatinib
H1975 cells [3]; 2 μM, 0 to 8 days
  spheroid growth / sphere size: completely inhibited
H1975 cells [3]; both 1 and 2 μM
  spheroid formation: strongly inhibited
A549 cells [4]; 0.5 μM
  effect on cell migration: significant inhibitory effect
A549 cells [4]; 1 μM
  reduction of migration ability: 80%
A549 cells [5]; 0.5 μM
  effect on cell invasion: significant inhibitory effect
A549 cells [5]; 1 μM
  reduction of invasion ability: 88%
MET; A549 cells, 72 or 96 h
  decrease of MET protein levels: ≤ 90%
MET; all four cell lines, 48 h
  reduction of MET protein levels: 70-90%
[6]
  reduction of tumor size compared to the control group: 72.1%
  reduction of tumor weight: 77.4%
[7]
  increase of p21 protein levels in xenograft tumor tissue: more than 2 fold
  protein levels of EGFR, MET, p-p70S6K, p70S6K, p-S6RP, AURKA, PLK1 and survivin in xenograft tumor tissue: greatly reduced
